What was measured:
Test in all cases: drug sensitivity score (DSS) (DSS (dimensionless)); higher = more sensitive (stronger drug response)
Kuramochi = system: Kuramochi
In short: (§1)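 Drugs were pre-plated in 384-well plates at five concentrations covering a 10,000-fold range, and 1 000 – 1 500 cells per well were added from patient-derived cultures or from ovarian cancer cell lines whose shRNA had been induced with 100 ng/ml doxycycline for three days or longer. Incubation lasted three days at 37 °C under 5.0 % CO2. A PHERAstar FS then recorded CellTiter-Glo luminescence as the readout of viability. A drug sensitivity score, calculated as described before, summarised the dose-response curve of every drug.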

OVSAHO = system: OVSAHO
In short: as §1

FIMM-PDC3 = patient-derived ovarian cancer cells; details: genetic perturbation: none (patient-derived cell culture)
In short: as §1

FIMM-PDC4 = patient-derived ovarian cancer cells; details: genetic perturbation: none (patient-derived cell culture)
In short: as §1

FIMM-PDC7 = patient-derived ovarian cancer cells; details: genetic perturbation: none (patient-derived cell culture)
In short: as §1

JHOS2 = system: JHOS2
In short: as §1

FIMM-PDC5 = patient-derived ovarian cancer cells; details: genetic perturbation: none (patient-derived cell culture)
In short: as §1

FIMM-PDC6 = patient-derived ovarian cancer cells; details: genetic perturbation: none (patient-derived cell culture)
In short: as §1

FIMM-PDC1 = patient-derived ovarian cancer cells; details: genetic perturbation: none (patient-derived cell culture)
In short: as §1

[1] = genetic perturbation: DOX-induced PTK7 shRNA knockdown
[2] = genetic perturbation: DOX-induced control shRNA

SMILES | drug sensitivity score (Kuramochi; [1]) | drug sensitivity score (Kuramochi; [2]) | drug sensitivity score (OVSAHO; [1]) | drug sensitivity score (OVSAHO; [2]) | drug sensitivity score (FIMM-PDC3) | drug sensitivity score (FIMM-PDC4) | drug sensitivity score (FIMM-PDC7) | drug sensitivity score (JHOS2; [1]) | drug sensitivity score (JHOS2; [2]) | drug sensitivity score (FIMM-PDC5) | drug sensitivity score (FIMM-PDC6) | drug sensitivity score (FIMM-PDC1)
CC[C@@H]1C(=O)N(C)c2cnc(Nc3ccc(C(=O)NC4CCN(C)CC4)cc3OC)nc2N1C1CCCC1 [BI 2536] | 10.7 | 3 | 5.9 | 8.8 | 7.5 | 6.1 | 3.5 | 16 | 4.6 | 19.4 | 0.1 | 6.05
CCS(=O)(=O)Nc1ccc(Oc2ccc(F)cc2F)c(-c2cn(C)c(=O)c3[nH]ccc23)c1 [Mivebresib] | 25.8 | 14.7 | 19.7 | 23.8 | 15.3 | 12.2 | 16.3 | 18.2 | 16.6 | 21.9 | 15.3 | 13.8
CC(C)C[C@H](NC(=O)[C@H](Cc1ccccc1)NC(=O)c1cnccn1)B(O)O [Bortezomib] | 16.3 | 20.1 | 24.2 | 11.6 | 30.6 | 28.8 | 31.9 | 25.7 | 23.6 | 27.4 | 31.8 | 29.1
CN1CCC(CNc2ccc3ncc(-c4cccc(OC(F)(F)F)c4)n3n2)CC1 [SGI-1776] | 5.3 | 5.7 | 7.9 | 7.2 | 6 | 6.8 | 9.1 | 6.2 | 5.9 | 6.9 | 6.8 | 5.6
O=C(c1ccc(F)c(F)c1Nc1ccc(I)cc1F)N1CC(O)([C@@H]2CCCCN2)C1 [Cobimetinib] | 6.05 | 2.8 | 9 | 3.9 | 4.8 | 12.4 | 7.4 | 0.8 | 11.1 | 12.7 | 12 | < 0
O=C1CN2Cc3c(ccc(Cl)c3Cl)N=C2N1 [Anagrelide] | < 0 | < 0 | < 0 | < 0 | 2.5 | 0.8 | 12 | < 0 | 3.5 | < 0 | 3.5 | < 0
CC(C)C[C@H](NC(=O)CNC(=O)c1cc(Cl)ccc1Cl)B(O)O [Ixazomib] | 3.55 | 5 | 5.1 | 2 | 17.1 | 13.8 | 16.8 | 13.5 | 7.8 | 12 | 19.2 | 13.6
CC(C)NC[C@@H](C(=O)N1CCN(c2ncnc3c2[C@H](C)C[C@H]3O)CC1)c1ccc(Cl)cc1 [Ipatasertib] | 0.35 | < 0 | < 0 | 4.6 | 0.8 | 5.9 | 7.5 | < 0 | 1.3 | 10.3 | 5.5 | 4.2
CNc1ncc2cc(-c3cc(NC(=O)NCCC(C)(C)C)c(F)cc3C)c(C)nc2n1 | 11.6 | 6.2 | 12.2 | 9.2 | 7.4 | 11.9 | 6.2 | 7.6 | 13.6 | 18.2 | 14.3 | 1.85
CCN1C(=O)CNc2ncc(-c3ccc(-c4nc[nH]n4)nc3C)nc21 [CC-115] | 6.85 | 7.1 | 10 | 7.1 | 6.6 | 10 | 17.4 | 6.4 | 7.1 | 14 | 9.5 | 5.8
COc1cc2c(cc1-c1c(C)noc1C)ncc1[nH]c(=O)n([C@H](C)c3ccccn3)c12 [I-BET151] | 10.6 | 3.7 | 5.7 | 10.3 | 4.5 | 3.9 | 9.9 | 8.4 | 6.2 | 8.9 | 5.9 | 3.15
NC(=O)Nc1cc(-c2cccc(F)c2)sc1C(=O)N[C@H]1CCCNC1 [AZD7762] | 6 | 2.9 | 6.4 | 3.1 | 9.1 | 8.1 | 5.8 | 7.6 | 4.6 | 7 | 6.4 | 7.75
COc1cc(NS(C)(=O)=O)ccc1Nc1c2ccccc2nc2ccccc12 [Amsacrine] | 1.25 | 1.4 | 5.3 | < 0 | 6.3 | 5.1 | 4 | 3.3 | 4.4 | 5.8 | 3.9 | 4.55
Cc1nc(Nc2n[nH]c3c2CN(C(=O)N[C@H](CN(C)C)c2ccccc2)C3(C)C)c2sccc2n1 | 12.3 | 8.6 | 11.1 | 15.3 | 14.3 | 16.6 | 11.8 | 16.6 | 13.6 | 20.8 | 14.8 | 9.6
N.N.[Cl][Pt][Cl] [Cisplatin] | 14.2 | 7 | 17.6 | 5.1 | 18.9 | 5.7 | 4.7 | 14.9 | 4.1 | 5.4 | 9.8 | 4.8
C=CC(=O)Nc1cc(Nc2nccc(-c3cn(C)c4ccccc34)n2)c(OC)cc1N(C)CCN(C)C [Osimertinib] | 4.8 | 4.3 | 5.9 | 3.3 | 9.5 | 11 | 9.6 | 4.1 | 4.1 | 14.4 | 12.5 | 4
COc1ccc(-c2ccc3c(N4CCOC[C@@H]4C)nc(N4CCOC[C@@H]4C)nc3n2)cc1CO [AZD8055] | 15.9 | 16.8 | 20.7 | 19 | 12.9 | 21.2 | 25.7 | 11.8 | 17 | 29.2 | 21.8 | 13.9

SMILES | drug sensitivity score (Kuramochi; [1]) | drug sensitivity score (Kuramochi; [2]) | drug sensitivity score (OVSAHO; [1]) | drug sensitivity score (OVSAHO; [2]) | drug sensitivity score (FIMM-PDC3) | drug sensitivity score (FIMM-PDC4) | drug sensitivity score (FIMM-PDC7) | drug sensitivity score (JHOS2; [1]) | drug sensitivity score (JHOS2; [2]) | drug sensitivity score (FIMM-PDC5) | drug sensitivity score (FIMM-PDC6) | drug sensitivity score (FIMM-PDC1)
CC1(COc2ccc3c(c2)ncn3-c2ccc3cccc(N4CCC(N)CC4)c3n2)COC1 [Crenolanib] | 3.65 | 2.9 | 3.8 | 3.7 | 5.3 | 5 | 4.7 | 8.5 | 5.7 | 8.5 | 4 | 3.55
COc1cc2c(Nc3ccc(Cl)c(Cl)c3F)ncnc2cc1OC[C@@H]1C[C@@H]2CN(C)C[C@@H]2C1 [Tesevatinib] | 1.35 | 1 | 0.5 | 1.9 | 13.6 | 19.2 | 11.5 | < 0 | 3.1 | 23.9 | 16.4 | 2.25
CC(=O)[C@]1(O)Cc2c(O)c3c(c(O)c2[C@@H](O[C@H]2C[C@H](N)[C@H](O)[C@H](C)O2)C1)C(=O)c1ccccc1C3=O [Idarubicin] | 5.75 | 6 | 6.8 | 4.8 | 8.1 | 8.2 | 8.8 | 7.2 | 6.9 | 8.7 | 5.7 | 5.1
O=C(CCCCCCC(=O)Nc1ccccc1)NO [Vorinostat] | 9.45 | 4.8 | 8.3 | 7.2 | 7.9 | 4.9 | 6.3 | 3.2 | 6.1 | 10.4 | 10.1 | 6
CN(C)CC#Cc1ccc(OCCCc2sc(N3CCc4cccc(C(=O)Nc5nc6ccccc6s5)c4C3)nc2C(=O)O)c(F)c1 | 4.55 | 9.9 | 23.3 | 2.6 | 16.8 | 14.1 | 19.3 | 6.3 | 0.5 | 31.9 | 30.1 | 18.7
C[C@@]1(C(=O)Nc2ccc(F)nc2)CCCN1c1nc(Nc2cc(C3CC3)n[nH]2)c2cccn2n1 | 5.25 | 5 | 7.2 | 8.9 | 10.8 | 11.5 | 16.6 | 6 | 4.4 | 14.1 | 4.1 | 13.8
Cc1cc2c(C(=O)NC[C@H](C)c3ccccc3)c(O)c(O)cc2c(O)c1-c1c(C)cc2c(C(=O)NC[C@H](C)c3ccccc3)c(O)c(O)cc2c1O [Sabutoclax] | 7.8 | 6.8 | 4.7 | 6.5 | 11.8 | 6.9 | 3.8 | 11.1 | 10.8 | 5.2 | 6.4 | 4.75
CCn1cc(-c2ccnc3[nH]c(-c4cccc(CN(C)C)c4)cc23)c(-c2ccc(NC(=O)N(C)C)cc2)n1 | < 0 | < 0 | 0.4 | < 0 | 2.8 | 2.9 | 0.2 | < 0 | 0.4 | 4.1 | < 0 | 2.25
C=CC(=O)Nc1cc2c(Nc3ccc(F)c(Cl)c3)ncnc2cc1OCCCN1CCOCC1 [Canertinib] | 8.9 | 8.6 | 8.2 | 7.6 | 15.7 | 20.4 | 12.1 | 8.1 | 7.4 | 27.5 | 20.8 | 7.4
CC(C)Nc1cc(-c2c[nH]c(C(=O)N[C@H](CO)c3cccc(Cl)c3)c2)c(Cl)cn1 [Ulixertinib] | 10.2 | 3.3 | 7.3 | 5 | 6.4 | 13.1 | 12 | 2.8 | 6.8 | 14.3 | 12.3 | 0.15
CC(C)Oc1ccc(C(=O)N[C@H](CNC(=O)CN(C)C)Cc2ccc(-c3cn4cccc([C@H](C)O)c4n3)cc2)cc1Cl | 15.1 | 2.5 | 7.7 | 9.5 | 11.9 | 6 | 4.2 | 8.9 | 6.4 | 14.9 | 0.2 | 12.7
CNC(=O)c1cccc(-c2ccc3c(N4CCOC[C@@H]4C)nc(N4CCOC[C@@H]4C)nc3n2)c1 [Vistusertib] | 9.7 | 12.4 | 12.6 | 14.3 | 7.8 | 14.9 | 18.6 | 6.1 | 10.5 | 23.9 | 13 | 8.75
COc1ccc(-c2nc(N3CCOCC3)c3sc(CN(C)c4ncc(C(=O)NO)cn4)cc3n2)cn1 [CUDC-907] | 33.1 | 27.7 | 27.8 | 31 | 34.3 | 22.7 | 25.9 | 31.3 | 28.1 | 34.5 | 29.9 | 29.9
CN(CC(=O)N(Cc1ccc(C2CCCCC2)cc1)c1ccc(C(=O)O)cc1)S(=O)(=O)c1c(F)c(F)c(F)c(F)c1F [SH-4-54] | 6.1 | 4.7 | 5.2 | 5.4 | 6 | 7 | 9.2 | 4.6 | 3.7 | 5.1 | 7.6 | 4
CCS(=O)(=O)N1CCN(c2ccc(Nc3ncc(C(N)=O)c(NC4CC4)n3)cc2)CC1 [Cerdulatinib] | < 0 | < 0 | < 0 | < 0 | < 0 | < 0 | 5.3 | 8.2 | < 0 | < 0 | < 0 | < 0
COc1cc(Nc2c(C#N)cnc3cc(OCCCN4CCN(C)CC4)c(OC)cc23)c(Cl)cc1Cl [Bosutinib] | 10.6 | 6.4 | 12.1 | 8.7 | 10.5 | 13.7 | 6.5 | 9.3 | 10.9 | 14.3 | 12.3 | 7.4
Nc1cc(C(F)(F)F)c(-c2cc(N3CCOCC3)nc(N3CCOCC3)n2)cn1 [Buparlisib] | 7.25 | 4.6 | 7.2 | 6.6 | 7.1 | 9.7 | 10.8 | 6.4 | 4.6 | 12.2 | 7.8 | 5.4

Reference: the supplement of paper PMC9386025
